Reference: ChEMBL document CHEMBL5620390, “A novel multifunctional mitochondrion-targeting NIR fluorophore probe inhibits tumour proliferation and metastasis through the PPARγ/ROS/β-catenin pathway” (Eur J Med Chem, 2023)
Active and inactive are the calls of the source. The rule behind the calls is not given here.

How the values were obtained:
[1] = Drug uptake in human A-375 cells assessed as fluorescence intensity at 2.5 uM incubated for 1 hr by confocal laser scanning microscopic analysis; type: ADME, cell-based; conditions: a-375, 1 h
[2] = Drug uptake in human MDA-MB-231 cells assessed as fluorescence intensity at 2.5 uM incubated for 1 hr by confocal laser scanning microscopic analysis; type: ADME, cell-based; conditions: mda-mb-231, 1 h
[3] = Drug uptake in mouse B16-F10 cells implanted in C57BL/6J mouse assessed as fluorescence aggregation in liver at 3 mg/kg, iv measured after 12 hrs; type: ADME, organism-based; conditions: in vivo
[4] = Drug uptake in human A-375 cells mitochondria at 2.5 uM incubated for 45 mins by mito-tracker green dye based confocal laser scanning fluorescence microscopy analysis; type: ADME; conditions: a-375, 0.75 h
A-375 [5] = assay: Induction of ROS generation in human A-375 cells assessed as reduction in SOD2 expression level at 0.31 to 1.25 uM incubated for 24 hrs; type: functional, cell-based; conditions: dose 0.31-1.25 µM
[6] = Cytotoxicity against mouse B16-F10 cells assessed as cell viability at 40 uM incubated for 24 hrs by MTT assay; type: toxicity, cell-based; conditions: read-out: Activity
A-375 [7] = assay: Inhibition of ROS generation in human A-375 cells preincubated with rosiglitazone for 2 hrs followed by wash out and compound addition for 1 hr by DCFH-DA staining based inverted fluorescence microscopic analysis; type: functional, cell-based
A-375 [8] = assay: Induction of ROS generation in human A-375 cells assessed as reduction in SOD2 expression level at 1.25 uM preincubated with rosiglitazone for 24 hrs followed by compound addition for 24 hrs; type: functional, cell-based
MDA-MB-231 = assay: Antiproliferative activity against human MDA-MB-231 cells assessed as inhibition of cell growth at 0.31 uM after 72 hrs by MTT assay; type: functional; set-up: scale not given: the % may be the effect or the level left
HeLa = assay: Antiproliferative activity against human HeLa cells assessed as inhibition of cell growth at 0.31 uM after 72 hrs by MTT assay; type: functional; set-up: scale not given: the % may be the effect or the level left
B16-F10 [9] = assay: Antiproliferative activity against mouse B16-F10 cells assessed as inhibition of cell growth at 0.31 uM after 72 hrs by MTT assay; type: functional; set-up: scale not given: the % may be the effect or the level left
B16-F10 [10] = assay: Antiproliferative activity against mouse B16-F10 cells assessed as inhibition of cell growth at 0.04 to 10 uM by MTT assay; type: functional, cell-based; conditions: dose 0.04-10 µM, time 24-72 hrs, TDE = time-dependent effect
A-375 [11] = assay: Antiproliferative activity against human A-375 cells assessed as inhibition of cell growth after 24 to 72 hrs by MTT assay; type: functional, cell-based
A-375 [12] = assay: Inhibition of colony formation in human A-375 cells at less than 0.63 uM by crystal violet staining based assay; type: functional, cell-based
A-375 [13] = assay: Inhibition of cell migration in human A-375 cells after 24 hrs by transwell assay; type: functional, cell-based; conditions: dose 0.31-1.25 µM
A-375 [14] = assay: Inhibition of Wnt/beta-catenin signaling in human A-375 cells assessed as reduction in TCF4 expression at 1.25 uM preincubated with rosiglitazone for 24 hrs followed by compound addition and measured after 24 hrs in presence of H2O2; type: cell-based
B16-F10 [15] = assay: Inhibition of Wnt/beta-catenin signaling in mouse B16-F10 cells assessed as reduction in beta-catenin expression at 1.25 uM preincubated with rosiglitazone for 24 hrs followed by compound addition and measured after 24 hrs in presence of H2O2; type: cell-based
A-375 [16] = assay: Induction of cell cycle arrest in human A-375 cells assessed as reduction in Cdk2 protein level at 0.31 to 1.25 uM after 24 hrs by Western blotting analysis; type: functional, cell-based; conditions: dose 0.31-1.25 µM
A-375 [17] = assay: Induction of cell cycle arrest in human A-375 cells assessed as reduction in Cdk4 protein level at 0.31 to 1.25 uM after 24 hrs by Western blotting analysis; type: functional, cell-based; conditions: dose 0.31-1.25 µM
A-375 [18] = assay: Induction of cell cycle arrest in human A-375 cells assessed as reduction in cyclin E1 protein level at 0.31 to 1.25 uM after 24 hrs by Western blotting analysis; type: functional, cell-based; conditions: dose 0.31-1.25 µM
A-375 [19] = assay: Induction of cell cycle arrest in human A-375 cells assessed as P21 protein accumulation at 0.31 to 1.25 uM after 24 hrs by Western blotting analysis; type: functional, cell-based; conditions: dose 0.31-1.25 µM
B16-F10 [20] = assay: Induction of cell cycle arrest in mouse B16-F10 cells assessed as reduction in cyclin E1 protein level at 0.31 to 1.25 uM after 24 hrs by Western blotting analysis; type: functional, cell-based; conditions: dose 0.31-1.25 µM
B16-F10 [21] = assay: Induction of cell cycle arrest in mouse B16-F10 cells assessed as P21 protein accumulation at 0.31 to 1.25 uM after 24 hrs by Western blotting analysis; type: functional, cell-based; conditions: dose 0.31-1.25 µM
B16-F10 [22] = assay: Induction of cell cycle arrest in mouse B16-F10 cells assessed as P27 protein accumulation at 0.31 to 1.25 uM after 24 hrs by Western blotting analysis; type: functional, cell-based; conditions: dose 0.31-1.25 µM
A-375 [23] = assay: Inhibition of cell metastasis in human A-375 cells assessed as reduction in MMP2 protein level at 0.31 to 1.25 uM after 24 hrs by Western blotting analysis; type: functional, cell-based; conditions: dose 0.31-1.25 µM
B16-F10 [24] = assay: Inhibition of cell metastasis in mouse B16-F10 cells assessed as reduction in MMP2 protein level at 0.31 to 1.25 uM after 24 hrs by Western blotting analysis; type: functional, cell-based; conditions: dose 0.31-1.25 µM
B16-F10 [25] = assay: Inhibition of cell metastasis in mouse B16-F10 cells assessed as reduction in MMP9 protein level at 0.31 to 1.25 uM after 24 hrs by Western blotting analysis; type: functional, cell-based; conditions: dose 0.31-1.25 µM
B16-F10 [26] = assay: Antitumor activity against mouse Dil-stained B16-F10 cells inoculated in zebrafish assessed as reduction in tumor growth by measuring tumor fluorescence intensity at 0.31 to 1.25 uM by confocal microscopy analysis; type: functional, cell-based; conditions: dose 0.31-1.25 µM
B16-F10 [27] = assay: Antitumor activity against mouse B16-F10 cells inoculated in C57BL/6J mouse assessed as reduction in tumor volume at 0.5 to 2 mg/kg, ip administered every other day and measured on day 22; type: functional, organism-based; conditions: dose 0.5-2 mg/kg, time 22.0 day
[28] = Toxicity in C57BL/6J mouse inoculated with mouse B16-F10 cells assessed as reduction in body weight at 2 mg/kg, ip administered every other day and measured after 14 days; type: organism-based; set-up: scale not given: the % may be the effect or the level left; conditions: in vivo, 336 h, time 14 day
[29] = Renal toxicity in C57BL/6J mouse inoculated with mouse B16-F10 cells assessed as change in BUN level at 2 mg/kg, ip administered every other day for 22 days; type: organism-based; conditions: in vivo, 528 h, time 22 day
B16-F10 [30] = assay: Antitumor activity against mouse B16-F10 cells inoculated in C57BL/6J mouse assessed as reduction in Ki-67 expression at 0.5 to 2 mg/kg, ip administered every other day and measured on day 22 by immunohistochemistry analysis; type: functional, organism-based; conditions: dose 0.5-2 mg/kg, time 22.0 day
B16-F10 [31] = assay: Antitumor activity against mouse B16-F10 cells inoculated in mouse assessed as reduction in lung melanoma nodules at 2 mg/kg, ip administered every other day and measured on day 18 by immunohistochemistry analysis; type: functional, organism-based; conditions: time 18.0 day
B16-F10 [32] = assay: Antitumor activity against mouse B16-F10 cells inoculated in mouse assessed as reduction in spleen metastasis at 2 mg/kg, ip administered every other day and measured on day 18 by H and E staining based assay; type: functional, organism-based; conditions: time 18.0 day
B16-F10 [33] = assay: Antitumor activity against mouse B16-F10 cells inoculated in mouse assessed as reduction in MMP9 expression at 2 mg/kg, ip administered every other day and measured on day 18 by immunohistochemistry analysis; type: functional, organism-based; conditions: time 18.0 day

Structure (SMILES): CC[N+]1=C(/C=C/C2=C(Cl)C(=C/C=C3\N(CCCCCC(=O)O/C(=N/C4CCCCC4)NC4CCCCC4)c4ccccc4C3(C)C)/CCC2)C(C)(C)c2ccccc21.[Br-]
- Drug uptake [1]: Active
- Drug uptake [2]: Active
- Drug uptake [3]: Active
- Drug uptake [4]: Active
- Activity (A-375 [5]): Active
- viability at 24 h, 40 µM [6]: 90%
- Activity (A-375 [7]): Dose-Dependent Effect
- Activity (A-375 [8]): inactive
- Activity (MDA-MB-231): 70%
- Activity (HeLa): 70%
- Activity (B16-F10 [9]): 70%
- Activity (B16-F10 [10]): Tde
- IC50 (A-375 [11]): 180 nM
- Activity (A-375 [11]; time 24-72 hrs): Dose-Dependent Effect
- inhibition (A-375 [12]): Active
- inhibition (A-375 [13]): Dose-Dependent Effect
- inhibition (A-375 [14]): inactive
- inhibition (B16-F10 [15]): inactive
- Activity (A-375 [16]): Active
- Activity (A-375 [17]): Active
- Activity (A-375 [18]): Active
- Activity (A-375 [19]): Active
- Activity (B16-F10 [20]): Active
- Activity (B16-F10 [21]): Active
- Activity (B16-F10 [22]): Active
- inhibition (A-375 [23]): Active
- inhibition (B16-F10 [24]): Active
- inhibition (B16-F10 [25]): Active
- Activity (B16-F10 [26]): Active
- Activity (B16-F10 [27]): Active
- Activity [28]: 13.5%
- Activity [29]: Non-Toxic
- Activity (B16-F10 [30]): Active
- Activity (B16-F10 [31]): Active
- Activity (B16-F10 [32]): Active
- Activity (B16-F10 [33]): Active
